Test results published in publication PMC10757563 (Nature chemical biology, 2023).

Tested on: ribosome
Experiment: Toeprinting analysis of ribosome arrest during in vitro translation
Assay type: biochemical
Details: model yrbA-fs15 ORF with UAG stop codon; 50 μM

C=C[C@]1(C)C[C@@H](OC(=O)CS[C@@H]2C[C@H]3CC[C@@H](C2)N3C)[C@]2(C)[C@H](C)CC[C@]3(CCC(=O)[C@H]32)[C@@H](C)[C@@H]1O [retapamulin]
ribosome arrest site (toeprint): ribosomes arrested at the start codon
